Experimental data taken from paper PMC4154066 (Chemical research in toxicology, 2013).
Like-named read-outs stand apart in the source and are kept apart here.

What was measured:
[1] = test system: HepG2 cells; assay: Oxygen consumption rate; type: cell-based, Human; conditions: for Relative percentage OCR 30 Sec: HepG2, 30 sec after compound at its MMP IC50; for Relative percentage OCR 30 Sec / Relative percentage OCR 1 h: basal OCR = 100%, mean ± SD; for Relative percentage OCR 1 h: HepG2, 1 h after compound at its MMP IC50
[2] = test system: HepG2 cells; assay: cells; type: cell-based, Human; conditions: for Compound potency (IC50) LDH Release 5 h: HepG2, 5 h treatment
[3] = test system: HepG2 cells; conditions: HepG2, 40 h; cited from earlier work
[4] = test system: mitochondrial membrane potential in HepG2 cells; assay: qHTS MMP assay, primary screen; type: cell-based, Human; conditions: for IC50: Homo sapiens
[5] = test system: caspase 3/7; conditions: HepG2, 16 h; cited from earlier work
[6] = HepG2, 1 h treatment, mean ± SD, 3 independent experiments
[7] = mean ± SD, 3 independent experiments
[8] = HepG2, compound at its MMP IC50, 30 sec and 1 h, then FCCP
[9] = Homo sapiens, HepG2, 1 h, read-out: Compound potency (IC50) LDH Release 1 h
[10] = Homo sapiens, HepG2, 5 h, read-out: Compound potency (IC50) LDH Release 5 h
[11] = read-out: Compound potency (IC50) LDH Release 1 h, HepG2, 1 h treatment, mean ± SD, 3 independent experiments

SMILES	Relative percentage OCR 30 Sec [1] [%]	Relative percentage OCR 1 h [1] [%]	also measured
O=C1C2CC=CCC2C(=O)N1SC(Cl)(Cl)Cl (stereo not shown) [Captan]	110.37 ± 7.97	128.41 ± 0.77	
Nc1ccc(O)cc1 [p-Aminophenol]	100.52 ± 5.81	158.18 ± 3.31	
Oc1ccc(Cl)cc1Sc1cc(Cl)ccc1O [2,2'-Thiobis(4-chlorophenol)]	273.19 ± 70.36	191.27 ± 0.92	
Cc1cc(O)c(C(C)(C)C)cc1Sc1cc(C(C)(C)C)c(O)cc1C [4,4-Thiobis(6-t-butyl-m-cresol)]	106.32 ± 4	127.15 ± 1.52	Compound potency (IC50) LDH Release 1 h [2, 6]: Inactive; Compound potency (IC50) LDH Release 5 h [2, 7]: Inconclusive
O=C1c2c(O)ccc([N+](=O)[O-])c2C(=O)c2c([N+](=O)[O-])ccc(O)c21 [1,8-Dihydroxy-4,5-dinitroanthraquinone]	144.03 ± 7.3	150.09 ± 1.27	Effect on OCR / FCCP-uncoupled OCR (in words) [1, 8]: acted as uncouplers; cytotoxicity at 40 h [3]: cytotoxic
CC(=O)Oc1ccccc1C(=O)Nc1ncc([N+](=O)[O-])s1 [Nitazoxanide, reference compound]	277.15 ± 15.64	199.34 ± 2.37	
O=c1cc(-c2ccc(O)cc2)oc2cc(O)cc(O)c12 [Apigenin]	99.69 ± 1.13	107.51 ± 0.16	Effect on OCR / FCCP-uncoupled OCR (in words) [1, 8]: did not affect the OCR or the FCCP-uncoupled OCR; cytotoxicity at 40 h [3]: the only exception
CCCCCCCCCc1ccc(O)cc1 [p -n -Nonylphenol]	116.61 ± 6.28	131.32 ± 0.61	
O=C(Nc1ccccc1)Nc1ccccc1 [Diphenylurea]	97.02 ± 4.18	143.97 ± 1.85	
Oc1cc(Cl)c(Cl)c(Cl)c1 [3,4,5-Trichlorophenol]	163.21 ± 18.34	173.49 ± 1.32	
O=C1C2(Cl)C3(Cl)C4(Cl)C(Cl)(Cl)C5(Cl)C3(Cl)C1(Cl)C5(Cl)C24Cl (stereo not shown) [Kepone]	139.53 ± 5.8	140.71 ± 0.96	IC50 [2, 9]: 49.1 ± 12.3 µM; IC50 [2, 10]: 58.4 ± 3.95 µM
Cc1cc2nc3c(=O)[nH]c(=O)nc-3n(C[C@H](O)[C@H](O)[C@H](O)CO)c2cc1C [Riboflavin]	103.69 ± 0.37	115.15 ± 0.4	
c1ccc(Nc2ccc3ccccc3c2)cc1 [N-Phenyl-2-naphthylamine]	103.45 ± 2.35	120.42 ± 0.94	
C[C@H]1CCCC(=O)CCC/C=C/c2cc(O)cc(O)c2C(=O)O1 [Zearalenone]	77.68 ± 2.39	109.62 ± 0.57	Effect on OCR / FCCP-uncoupled OCR (in words) [1, 8]: depressed both basal and FCCP uncoupled rates
Nc1ccc2c(c1)C(=O)c1ccccc1C2=O [2-Aminoanthraquinone]	97.54 ± 0.63	106.44 ± 0.61	
Oc1ccc(/C=C/c2cc(O)cc(O)c2)cc1 [Resveratrol]	100.5 ± 0.73	110.92 ± 0.36	
CC(C)(c1ccccc1)c1ccc(O)cc1 [4-Cumylphenol]	111.24 ± 4.51	121.31 ± 0.33	
Clc1ccc(C(c2ccccc2Cl)C(Cl)Cl)cc1 (stereo not shown) [o,p'-DDD (Mitotane), 1,1-dichloro-2-(o-chlorophenyl)-2-(p-chlorophenyl) ethane, reference compound]	102.84 ± 1.36	114.22 ± 0.42	
N#CC(C#N)=NNc1ccc(OC(F)(F)F)cc1 [FCCP, Carbonyl cyanide 4-(trifluoromethoxy)phenylhydrazone, reference compound]			IC50 ([4]; HepG2, 1 h, read-out: mean IC50 of positive control, 1 h): 0.81 ± 0.2 µM; IC50 ([4]; HepG2, 5 h, read-out: mean IC50 of positive control, 5 h): 1.28 ± 0.32 µM

SMILES	Relative percentage OCR 30 Sec [1] [%]	Relative percentage OCR 1 h [1] [%]	also measured
CN(C)c1ccc(N=NS(=O)(=O)O)cc1 [Formulated fenaminosulf (Dexon), fenaminosulf]	102.48 ± 0.9	110.45 ± 0.28	
COC(=O)Nc1cccc(OC(=O)Nc2cccc(C)c2)c1 [Phenmedipham]	105.47 ± 2.71	130.87 ± 1.18	Compound potency (IC50) LDH Release 1 h [2, 6]: Inactive; Potency for cytotoxicity (LDH) compared with MMP decrease, 5 h ([2]; HepG2, 5 h): more potent for cytotoxicity than for MMP disruption; Compound potency (IC50) LDH Release 5 h [2, 7]: Inconclusive
Cc1cc(O)c2c(c1)C(=O)c1cc(O)cc(O)c1C2=O [Emodin]	235.59 ± 56.54	210.48 ± 1.83	Effect on OCR / FCCP-uncoupled OCR (in words) [1, 8]: acted as uncouplers; cytotoxicity at 40 h [3]: cytotoxic
O=c1c(O)c(-c2ccc(O)cc2)oc2cc(O)cc(O)c12 [Kaempferol]	118.63 ± 4.29	138.85 ± 1.28	Compound potency (IC50) LDH Release 1 h [2, 6]: Inactive; Compound potency (IC50) LDH Release 5 h [2, 7]: Inconclusive; Effect on OCR / FCCP-uncoupled OCR (in words) [1, 8]: acted as an uncoupler
CN(C)c1ccc(C(=C2C=CC(=[N+](C)C)C=C2)c2ccccc2)cc1.CN(C)c1ccc(C(=C2C=CC(=[N+](C)C)C=C2)c2ccccc2)cc1.O=C(O)C(=O)O.O=C([O-])C(=O)O.O=C([O-])C(=O)O [Malachite green oxalate]	163.81 ± 17.5	97.14 ± 3.09	Primary screen outcome (MMP decrease) 1 h [4]: positive; Primary screen outcome (MMP decrease) 5 h [4]: positive; Compound potency (IC50) LDH Release 1 h [2, 6]: Inactive; Compound potency (IC50) LDH Release 5 h [2, 7]: cytotoxic; Effect on OCR / FCCP-uncoupled OCR (in words) [1, 8]: immediate uncoupling; induction of caspase 3/7 [5]: induced caspase 3/7
C[C@@H]1CC[C@@]2(OC1)O[C@H]1[C@@H](O)[C@H]3[C@@H]4CC[C@H]5C[C@@H](O[C@@H]6O[C@H](CO)[C@H](O[C@@H]7O[C@H](CO)[C@@H](O)[C@H](O[C@@H]8OC[C@@H](O)[C@H](O)[C@H]8O)[C@H]7O[C@@H]7O[C@H](CO)[C@H](O)[C@H](O[C@@H]8O[C@H](CO)[C@@H](O)[C@H](O)[C@H]8O)[C@H]7O)[C@H](O)[C@H]6O)[C@H](O)C[C@]5(C)[C@H]4CC[C@]3(C)[C@H]1[C@@H]2C [Digitonin]	57.25 ± 6.4	54.89 ± 0.48	IC50 [2, 9]: 45.1 ± 8.43 µM; IC50 [2, 10]: 45.1 ± 8.43 µM; Effect on OCR / FCCP-uncoupled OCR (in words) [1, 8]: depressed both basal and FCCP uncoupled rates
CC/C(=C(/CC)c1ccc(O)cc1)c1ccc(O)cc1 [Diethylstilbestrol [DES], Diethylstilbestrol, reference compound]			Effect on OCR / FCCP-uncoupled OCR (in words) [1]: depressed both basal and FCCP uncoupled rates
Oc1c(Cl)cc(Cl)c(Cl)c1Cc1c(O)c(Cl)cc(Cl)c1Cl [Hexachlorophene]	201.72 ± 51.19	175.25 ± 1.35	
CC(=O)[O][Hg][c]1ccccc1 [Phenyl mercuric acetate]	67.6 ± 5.55	51.54 ± 0.26	IC50 [2, 11]: 68.1 ± 4.44 µM; Effect on OCR / FCCP-uncoupled OCR (in words) [1, 8]: depressed both basal and FCCP uncoupled rates
Oc1ccc(Cl)cc1Cc1cc(Cl)ccc1O [2,2'-Methylenebis-(4-chlorophenol)]	170.42 ± 33.35	168.27 ± 1.85	
O=c1c(-c2ccc(O)cc2)coc2cc(O)cc(O)c12 [Genistein (4',5,7-Trihydroxyisoflavone), 4',5,7-Trihydroxyisoflavone]	90.18 ± 3.05	105.21 ± 0.19	
COc1cc(/C=C/C(=O)CC(=O)/C=C/c2ccc(O)c(OC)c2)ccc1O [Curcumin]	86 ± 3.54	94.85 ± 0.67	Effect on OCR / FCCP-uncoupled OCR (in words) [1, 8]: significantly suppressed the FCCP uncoupled rates
CCCCCCCC[N+](CCCCCCCC)(CCCCCCCC)CCCCCCCC.[Br-] [tetra-N-Octylammonium bromide]	122.56 ± 40.61	215.53 ± 1.14	IC50 [2, 11]: 35.4 ± 12.6 µM
Oc1ccc(Cl)cc1Cc1ccccc1 [o-Benzyl-p-chlorophenol]	123.51 ± 12.67	126.12 ± 0.47	
Nc1cccc2c(N)cccc12 [1,5-Naphthalenediamine]	104.68 ± 1.3	115.87 ± 0.7	
CC1=C(/C=C/C(C)=C/C=C/C(C)=C/C(=O)Nc2ccc(O)cc2)C(C)(C)CCC1 [4-Hydroxyphenyl retinamide]	96.31 ± 1.42	98.83 ± 0.42	Effect on OCR / FCCP-uncoupled OCR (in words) [1, 8]: significantly suppressed the FCCP uncoupled rates
Cl.N=C1C=CC(=C(c2ccc(N)cc2)c2ccc(N)cc2)C=C1 [Basic red 9 (p-Rosaniline HCl), p-Rosaniline HCl]	−9.78 ± 16.86	35.74 ± 2.42	Compound potency (IC50) LDH Release 5 h [2, 7]: negative; induction of caspase 3/7 [5]: negative
O=C=Nc1ccc(Cl)c(Cl)c1 [3,4-Dichlorophenyl isocyanate]	102.45 ± 10.76	236.03 ± 4.84	
